For 51 molecules, viability results are on record in paper PMC11995724, “Antibiotic target discovery by integrated phenotypic and activity-based profiling of electrophilic fragments” (Cell chemical biology, 2025).

Each structure is given as a SMILES string. Structures can show the parent of a compound that is named as a salt.

This data set is described as follows: in vitro. To be noted: human, hek293t cells.
Description: Mammalian cytotoxicity measurement was performed using Cell Titer-Glo 2.0 Cell Viability Assay (Promega, G9243) according to the manufacturer protocol. In brief, mammalian cells were seeded into 384-well white plates (Greiner, 781080) and incubated at 37°C for one day. Compounds from the Cys-Library were dispensed into the assay plate using epMotion 96. The plates were then incubated at 37°C for two days. An equal volume of Cell Titer-Glo 2.0 reagent was added into each well of the assay plate using epMotion 96 and incubated at 22°C for 10 min, followed by luminescence measurement using a Cytation 5 plate reader (BioTek).
With `COc1ccc(N(C(=O)CCl)C2CCS(=O)(=O)C2)cc1` (stereo not drawn) [5-I20, 2-chloro-N-(1,1-dioxo-1lambda6-thiolan-3-yl)-N-(4-methoxyphenyl)acetamide], the viability (in general, a read-out of living cells in per cent, often relative to untreated cells) at 48 h, 25 µM was 2.54%.

With `CC(Cl)C(=O)NC(=O)Nc1ccccc1` (stereo not drawn) [5-I21, 3-(2-chloropropanoyl)-1-phenylurea], the viability at 48 h, 25 µM was determined as 92.7%.

With `N#Cc1cccc(NC2CCN(C(=O)CCl)C2)c1` (stereo not drawn) [5-I22, 3-{[1-(2-chloroacetyl)pyrrolidin-3-yl]amino}benzonitrile], the viability at 48 h, 25 µM amounted to 2.25%.

Consider `CN(C(=O)c1ccccc1)C1CC2CCC(C1)N2C(=O)CCl` (stereo not drawn) [5-J03, N-[8-(2-chloroacetyl)-8-azabicyclo[3.2.1]octan-3-yl]-N-methylbenzamide], for which the viability at 48 h, 25 µM was 1.62%.

As to `CC(Cl)C(=O)N(C)C1CCCCC1` (stereo not drawn) [5-J04, 2-chloro-N-cyclohexyl-N-methylpropanamide], the viability at 48 h, 25 µM was 94.1%.

On to `CC1CSc2ccc(Cl)cc2N(C(=O)CCl)C1` (stereo not drawn) [5-J05, 2-chloro-1-(7-chloro-3-methyl-2,3,4,5-tetrahydro-1,5-benzothiazepin-5-yl)ethan-1-one], for which the viability at 48 h, 25 µM was 1.21%.

As to `O=C(CCl)NCC1CCCCC1` [5-J06, 2-chloro-N-(cyclohexylmethyl)acetamide], the viability at 48 h, 25 µM is 52.1%.

Turning to `CC1CCN(C(=O)CCl)c2cc(C(F)(F)F)ccc2S1` (stereo not drawn) [5-J07, 2-chloro-1-[2-methyl-7-(trifluoromethyl)-2,3,4,5-tetrahydro-1,5-benzothiazepin-5-yl]ethan-1-one], the viability at 48 h, 25 µM was determined as 0.306%.

Consider `CCN(c1ccc(NC(=O)CCl)cc1)C(C)C` [5-J08, 2-chloro-N-{4-[ethyl(propan-2-yl)amino]phenyl}acetamide hydrochloride], for which the viability at 48 h, 25 µM worked out at 3.48%.

For the molecule `CCCN(Cc1ccc(C)cc1)C(=O)CCl` [5-J09, 2-chloro-N-[(4-methylphenyl)methyl]-N-propylacetamide], the viability at 48 h, 25 µM turned out to be 0.952%.

`O=C(CCl)NCCCN1CCCCCC1=O` [5-J10, 2-chloro-N-[3-(2-oxoazepan-1-yl)propyl]acetamide]: the viability at 48 h, 25 µM is 119%.

Regarding `CN(C)S(=O)(=O)c1ccc(NC(=O)CCl)cc1` [5-J11, 2-chloro-N-[4-(dimethylsulfamoyl)phenyl]acetamide], the viability at 48 h, 25 µM stood at 1.08%.

Take `CCN(CC)S(=O)(=O)c1ccc(Cl)c(NC(=O)CCl)c1` [5-J12, 2-chloro-N-[2-chloro-5-(diethylsulfamoyl)phenyl]acetamide]: the viability at 48 h, 25 µM came out at 0.662%.

For `Cc1nn(CC(F)(F)F)c(C)c1C1COCCN1C(=O)CCl` (stereo not drawn) [5-J13, 2-chloro-1-{3-[3,5-dimethyl-1-(2,2,2-trifluoroethyl)-1H-pyrazol-4-yl]morpholin-4-yl}ethan-1-one], the viability at 48 h, 25 µM was determined as 2.86%.

Regarding `O=C(CCl)Nc1cccc(CN2CCSCC2)c1` [5-J14, 2-chloro-N-{3-[(thiomorpholin-4-yl)methyl]phenyl}acetamide hydrochloride], the viability at 48 h, 25 µM was determined as 1.12%.

Take `Cc1ncc(CNC(=O)C(C)Cl)n1C` (stereo not drawn) [5-J15, 2-chloro-N-[(1,2-dimethyl-1H-imidazol-5-yl)methyl]propanamide]: the viability at 48 h, 25 µM came out at 106%.

For `CCN(Cc1cccc(C)c1)C(=O)CCl` [5-J16, 2-chloro-N-ethyl-N-[(3-methylphenyl)methyl]acetamide], the viability at 48 h, 25 µM turned out to be 1.39%.

For the molecule `CC(Cl)C(=O)NC(C)(C(N)=O)c1cccc(Cl)c1` (stereo not drawn) [5-J17, 2-(3-chlorophenyl)-2-(2-chloropropanamido)propanamide], the viability at 48 h, 25 µM is 125%.

As for `COc1ccc(CNC(=O)C(C)Cl)cc1` (stereo not drawn) [5-J18, 2-chloro-N-[(4-methoxyphenyl)methyl]propanamide], the viability at 48 h, 25 µM stood at 98.5%.

For `CC(Cl)C(=O)N1CC=C(C(F)(F)F)CC1` (stereo not drawn) [5-J19, 2-chloro-1-[4-(trifluoromethyl)-1,2,3,6-tetrahydropyridin-1-yl]propan-1-one], the viability at 48 h, 25 µM came out at 118%.

For `CC(C)N(Cc1ccccc1)C(=O)CCl` [5-J20, N-benzyl-2-chloro-N-(propan-2-yl)acetamide], the viability at 48 h, 25 µM turned out to be 1.21%.

Consider `CC1CC(NC(=O)C(C)Cl)=NO1` (stereo not drawn) [5-J21, 2-chloro-N-(5-methyl-4,5-dihydro-1,2-oxazol-3-yl)propanamide], for which the viability at 48 h, 25 µM was found to be 97.1%.

In the case of `O=C(CCl)NC(=O)c1ccc(OC(F)F)cc1` [5-J22, N-(2-chloroacetyl)-4-(difluoromethoxy)benzamide], the viability at 48 h, 25 µM amounted to 108%.

As for `Cc1ccc(Cc2cnc(NC(=O)CCl)s2)cc1` [5-K03, 2-chloro-N-{5-[(4-methylphenyl)methyl]-1,3-thiazol-2-yl}acetamide], the viability at 48 h, 25 µM is -0.392%.

For the molecule `CCC(=O)Nc1cccc(NC(=O)CCl)c1C` [5-K04, N-[3-(2-chloroacetamido)-2-methylphenyl]propanamide], the viability at 48 h, 25 µM is 2.12%.

Take `CC(Cl)C(=O)Nc1nc2ccccc2s1` (stereo not drawn) [5-K05, N-(1,3-benzothiazol-2-yl)-2-chloropropanamide]: the viability at 48 h, 25 µM came to 59.9%.

For `CCn1ccc(CN(C)C(=O)CCl)n1` [5-K06, 2-chloro-N-[(1-ethyl-1H-pyrazol-3-yl)methyl]-N-methylacetamide], the viability at 48 h, 25 µM worked out at 1.77%.

Consider `N#Cc1ccc(OC2CN(C(=O)CCl)C2)cc1` [5-K07, 4-{[1-(2-chloroacetyl)azetidin-3-yl]oxy}benzonitrile], for which the viability at 48 h, 25 µM stood at 0.233%.

As for `CN(Cc1ccccc1)S(=O)(=O)c1ccc(NC(=O)CCl)cc1` [5-K08, N-{4-[benzyl(methyl)sulfamoyl]phenyl}-2-chloroacetamide], the viability at 48 h, 25 µM worked out at 16.1%.

`O=C(CCl)N1c2ccc(F)cc2NC(=O)C12CCC2` [5-K09, 1'-(2-chloroacetyl)-6'-fluoro-3',4'-dihydro-1'H-spiro[cyclobutane-1,2'-quinoxalin]-3'-one]: the viability at 48 h, 25 µM turned out to be 0.346%.

On to `O=C(CCl)N1CCC1c1cccc(F)c1` (stereo not drawn) [5-K10, 2-chloro-1-[2-(3-fluorophenyl)azetidin-1-yl]ethan-1-one], for which the viability at 48 h, 25 µM was 28.5%.

As to `CN(C)C(=O)c1cc2n(n1)CC1(CCN(C(=O)CCl)CC1)OC2` [5-K11, 1-(2-chloroacetyl)-N,N-dimethyl-4',7'-dihydrospiro[piperidine-4,6'-pyrazolo[3,2-c][1,4]oxazine]-2'-carboxamide], the viability at 48 h, 25 µM was found to be 0.714%.

On to `CC(O)CN(Cc1ccc(Cl)c(F)c1)C(=O)CCl` (stereo not drawn) [5-K12, 2-chloro-N-[(4-chloro-3-fluorophenyl)methyl]-N-(2-hydroxypropyl)acetamide], for which the viability at 48 h, 25 µM amounted to 0.478%.

Consider `Cc1ccc(N(C(=O)CCl)C2C=CS(=O)(=O)C2)cc1` (stereo not drawn) [5-K13, 2-chloro-N-(1,1-dioxo-2,3-dihydro-1lambda6-thiophen-3-yl)-N-(4-methylphenyl)acetamide], for which the viability at 48 h, 25 µM came to 0.562%.

For the molecule `CC(NC(=O)CCl)C(=O)N1CCS(=O)(=O)CC1` (stereo not drawn) [5-K14, 2-chloro-N-[1-(1,1-dioxo-1lambda6-thiomorpholin-4-yl)-1-oxopropan-2-yl]acetamide], the viability at 48 h, 25 µM was found to be 86.7%.

Turning to `Cc1cc(C)c(NC(=O)C(C)Cl)c(C)c1` (stereo not drawn) [5-K15, 2-chloro-N-(2,4,6-trimethylphenyl)propanamide], the viability at 48 h, 25 µM is 140%.

Regarding `NS(=O)(=O)c1cccc2cc(NC(=O)CCl)ccc12` [5-K16, 2-chloro-N-(5-sulfamoylnaphthalen-2-yl)acetamide], the viability at 48 h, 25 µM was 1.61%.

For `Cc1nc(-c2cccc(NC(=O)CCl)c2)cs1` [5-K17, 2-chloro-N-[3-(2-methyl-1,3-thiazol-4-yl)phenyl]acetamide], the viability at 48 h, 25 µM is 13.2%.

For the molecule `O=C(CCl)N1CCC(Cc2nc(-c3ccc(F)cn3)no2)CC1` [5-K18, 2-chloro-1-(4-{[3-(5-fluoropyridin-2-yl)-1,2,4-oxadiazol-5-yl]methyl}piperidin-1-yl)ethan-1-one], the viability at 48 h, 25 µM amounted to 1.83%.

In the case of `CC(Cl)C(=O)N(Cc1ccccc1)Cc1ccccc1` (stereo not drawn) [5-K19, N,N-dibenzyl-2-chloropropanamide], the viability at 48 h, 25 µM came out at 82.1%.

Take `Cc1ccc(C)c(CN(CCO)C(=O)CCl)c1` [5-K20, 2-chloro-N-[(2,5-dimethylphenyl)methyl]-N-(2-hydroxyethyl)acetamide]: the viability at 48 h, 25 µM amounted to 2.44%.

Take `CC(Cl)C(=O)N1CCC(Cc2ccccc2)CC1` (stereo not drawn) [5-K21, 1-(4-benzylpiperidin-1-yl)-2-chloropropan-1-one]: the viability at 48 h, 25 µM turned out to be 86.2%.

For the molecule `O=C(CCl)Nc1ccc(S(=O)(=O)Nc2ccccc2)cc1` [5-K22, 2-chloro-N-[4-(phenylsulfamoyl)phenyl]acetamide], the viability at 48 h, 25 µM turned out to be 1.09%.

For `O=C(CCl)N(Cc1ccccc1)Cc1cc2n(n1)CCCC2` [5-L03, N-benzyl-2-chloro-N-({4H,5H,6H,7H-pyrazolo[1,5-a]pyridin-2-yl}methyl)acetamide], the viability at 48 h, 25 µM is 0.904%.

For the molecule `O=C(CCl)N1N=C(c2ccc(Cl)cc2)CC1c1ccco1` (stereo not drawn) [5-L04, 2-chloro-1-[3-(4-chlorophenyl)-5-(furan-2-yl)-4,5-dihydro-1H-pyrazol-1-yl]ethan-1-one], the viability at 48 h, 25 µM was -0.215%.

With `C[C@H]1CN(C(=O)CCl)CCN1C(=O)c1cscn1` [5-L05, 2-chloro-1-[(3S)-3-methyl-4-(1,3-thiazole-4-carbonyl)piperazin-1-yl]ethan-1-one], the viability at 48 h, 25 µM came out at 2.69%.

Take `O=C(CCl)NCc1ccccc1CN1CCOCC1` [5-L06, 2-chloro-N-({2-[(morpholin-4-yl)methyl]phenyl}methyl)acetamide hydrochloride]: the viability at 48 h, 25 µM was 1.46%.

Consider `CCN(Cc1ccc2c(c1)OCO2)C(=O)CCl` [5-L07, N-[(1,3-dioxaindan-5-yl)methyl]-2-chloro-N-ethylacetamide], for which the viability at 48 h, 25 µM is 0.477%.

As to `O=C(CCc1ccccc1)NC1CCN(C(=O)CCl)CC1` [5-L08, N-[1-(2-chloroacetyl)piperidin-4-yl]-3-phenylpropanamide], the viability at 48 h, 25 µM is 1.18%.

As for `O=C(CCl)NCCc1cccs1` [5-L09, 2-chloro-N-[2-(thiophen-2-yl)ethyl]acetamide], the viability at 48 h, 25 µM turned out to be 90.7%.

For `CC(Cl)C(=O)Nc1ccccc1F` (stereo not drawn) [5-L10, 2-chloro-N-(2-fluorophenyl)propanamide], the viability at 48 h, 25 µM was determined as 99.2%.
